Positions of bridges follow the written chain, without caps; N, C: chain ends. Non-standard residues stand in square brackets, D forms with d. Residues, ends and D or L forms follow the SMILES beside them. Trp(1-CH2COOH) = N[C@@H](Cc1cn(CC(=O)O)c2ccccc12)C(=O)O; Phe(4-F) = N[C@@H](Cc1ccc(F)cc1)C(=O)O; Hyp = O=C(O)[C@@H]1C[C@@H](O)CN1; Aad = N[C@@H](CCCC(=O)O)C(=O)O; NMeNle = CCCC[C@H](NC)C(=O)O; dOrn = NCCC[C@@H](N)C(=O)O; Pip = O=C(O)[C@@H]1CCCCN1; NMeA = CN[C@@H](C)C(=O)O; Dab = NCC[C@H](N)C(=O)O; Dap = NC[C@H](N)C(=O)O; AEA = NCCOCC(=O)O; Ava = NCCCCC(=O)O
Target: T1, PD-1-Ig binding to PD-L1-TVMV-His (PD-L1-His) (Homo sapiens, UniProt Q9NZQ7)
T1 construct: hPDL1(19-239)-TVMV-His; made in house; host or cells: HEK293T cells
Experiment: PD-1/PD-L1 Homogenous Time-Resolved Fluorescence (HTRF) binding assay
Conditions: PD-1-Ig (20 nM) / PD-L1-His (10 nM); numeric values
Description: The ability of the macrocyclic peptides of the present disclosure to bind to PD-L1 was investigated using a PD-1/PD-L1 Homogenous Time-Resolved Fluorescence (HTRF) binding assay.
Homogenous Time-Resolved Fluorescence (HTRF) Assays of Binding of Soluble PD-1 to Soluble PD-L1. Soluble PD-1 and soluble PD-L1 refers to proteins with carboxyl-end truncations that remove the transmembrane-spanning regions and are fused to heterologous sequences, specifically the Fc portion of the human immunoglobuling G sequence (Ig) or the hexahistidine epitope tag (His). All binding studies were performed in an HTRF assay buffer consisting of dPBS supplemented with 0.1% (w/v) bovine serum albumin and 0.05% (v/v) Tween-20. For the PD-1-Ig/PD-L1-His binding assay, inhibitors were pre-incubated with PD-L1-His (10 nM final) for 15 m in 4 μl of assay buffer, followed by addition of PD-1-Ig (20 nM final) in 1 μl of assay buffer and further incubation for 15 m. PD-L1 fusion proteins from either human, cynomologous macaques, mouse, or other species were used. HTRF detection was achieved using europium crypate-labeled anti-Ig monoclonal antibody (1 nM final) and allophycocyanin (APC) labeled anti-His monoclonal antibody (20 nM final). Antibodies were diluted in HTRF detection buffer and 5 μl was dispensed on top of binding reaction. […] Additional binding assays were established between PD-1-Ig/PD-L2-His (20 and 5 nM, respectively), CD80-His/PD-L1-Ig (100 and 10 nM, respectively) and CD80-His/CTLA4-Ig (10 and 5 nM, respectively).
Recombinant Proteins. […] Human PD-L2-His (Sino Biologicals), CD80-His (Sino Biologicals), CTLA4-Ig (RnD Systems) were all obtained through commercial sources.

T1 sequence (Q9NZQ7 with tags, fused parts or gaps): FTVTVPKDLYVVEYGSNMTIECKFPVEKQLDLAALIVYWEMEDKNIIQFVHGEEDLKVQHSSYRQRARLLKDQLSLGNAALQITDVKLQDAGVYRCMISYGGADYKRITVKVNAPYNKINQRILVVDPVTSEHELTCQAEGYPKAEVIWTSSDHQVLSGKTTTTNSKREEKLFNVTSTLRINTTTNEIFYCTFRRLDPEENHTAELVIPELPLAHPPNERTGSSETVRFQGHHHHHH

Row | SMILES | IC50 [nM]
1 | CCCC[C@H]1C(=O)N(C)[C@@H](CCCC)C(=O)N[C@@H](CC(C)C)C(=O)N[C@H](C(N)=O)CNCC(=O)N[C@@H](Cc2ccc(F)cc2)C(=O)N2CCCC[C@H]2C(=O)N[C@@H](CC(=O)O)C(=O)N2CCC[C@H]2C(=O)N[C@@H](CCC(N)=O)C(=O)N[C@@H](CCC(N)=O)C(=O)N2C[C@H](O)C[C@H]2C(=O)N[C@@H](Cc2c[nH]c3ccccc23)C(=O)N[C@@H](CC(N)=O)C(=O)N[C@@H](Cc2cn(CC(=O)O)c3ccccc23)C(=O)N1C [Example 9041] | 5
2 | CCCC[C@H]1C(=O)N(C)[C@@H](CCCC)C(=O)N[C@@H](CC(C)C)C(=O)NCCC[C@@H](N)C(=O)N[C@@H](Cc2ccc(F)cc2)C(=O)N2CCCC[C@H]2C(=O)N[C@@H](CC(N)=O)C(=O)N2CCC[C@H]2C(=O)N[C@@H](CN)C(=O)N[C@@H](CCC(=O)O)C(=O)N2C[C@H](O)C[C@H]2C(=O)N[C@@H](Cc2c[nH]c3ccccc23)C(=O)N[C@@H](CCN)C(=O)N[C@@H](Cc2cn(CC(=O)O)c3ccccc23)C(=O)N1C [Example 10570] (H-[dOrn][Phe(4-F)][Pip]NP[Dap]E[Hyp]W[Dab][Trp(1-CH2COOH)][NMeNle][NMeNle]L; lactam 1-C) | 12
3 | CCCC[C@H]1C(=O)N(C)[C@@H](CCCC)C(=O)N[C@@H](CC(C)C)C(=O)N[C@H](C(=O)NCC(N)=O)CNCC(=O)N[C@@H](Cc2ccc(O)cc2)C(=O)N(C)[C@@H](C)C(=O)N[C@@H](CC(N)=O)C(=O)N2CCC[C@H]2C(=O)N[C@@H](CCC(N)=O)C(=O)N[C@@H](CCC(=O)O)C(=O)N2C[C@H](O)C[C@H]2C(=O)N[C@@H](Cc2c[nH]c3ccccc23)C(=O)N[C@@H](CC(N)=O)C(=O)N[C@@H](Cc2cn(CC(=O)O)c3ccccc23)C(=O)N1C [Example 9007] | 5

Same assay, conditions: PD-1-Ig (20 nM) / PD-L1-His (10 nM); range classes

Row | SMILES | IC50 [nM]
4 | CCCC[C@H]1C(=O)N(C)[C@@H](CCCC)C(=O)N[C@@H](CC(C)C)C(=O)N[C@H](C(N)=O)CNCC(=O)N[C@@H](Cc2ccc(O)cc2)C(=O)N2CCCC[C@H]2C(=O)N[C@@H](CC(=O)O)C(=O)N2CCC[C@H]2C(=O)N[C@@H](CCC(N)=O)C(=O)N[C@@H](CCC(=O)O)C(=O)N2C[C@H](O)C[C@H]2C(=O)N[C@@H](Cc2c[nH]c3ccccc23)C(=O)N[C@@H](CC(N)=O)C(=O)N[C@@H](Cc2cn(CC(=O)O)c3ccccc23)C(=O)N1C [Example 9014] | 1 to 9.9
5 | CCCC[C@H]1C(=O)N(C)[C@@H](CCCC)C(=O)N[C@@H](CC(C)C)C(=O)N[C@H](C(N)=O)CCCC(=O)N[C@@H](Cc2ccc(O)cc2)C(=O)N2CCCC[C@H]2C(=O)N[C@@H](CC(N)=O)C(=O)N2CCC[C@H]2C(=O)N[C@@H](CN)C(=O)N[C@@H](CCC(=O)O)C(=O)N2C[C@H](O)C[C@H]2C(=O)N[C@@H](Cc2c[nH]c3ccccc23)C(=O)N[C@@H](CCN)C(=O)N[C@@H](Cc2cn(CC(=O)O)c3ccccc23)C(=O)N1C [Example 10520] (Y[Pip]NP[Dap]E[Hyp]W[Dab][Trp(1-CH2COOH)][NMeNle][NMeNle]L[Aad]-NH2; lactam N-14) | 10 to 99
6 | CCCC[C@H]1C(=O)N(C)[C@@H](CCCC)C(=O)N[C@@H](CC(C)C)C(=O)N[C@H](C(N)=O)CNCC(=O)N[C@@H](Cc2ccc(O)cc2)C(=O)N2CCCC[C@H]2C(=O)N[C@@H](CC(N)=O)C(=O)N2CCC[C@H]2C(=O)N[C@@H](CCC(N)=O)C(=O)N[C@@H](CCC(=O)O)C(=O)N2C[C@H](O)C[C@H]2C(=O)N[C@@H](Cc2c[nH]c3ccccc23)C(=O)N[C@@H](CC(N)=O)C(=O)N[C@@H](Cc2cn(CC(=O)O)c3ccccc23)C(=O)N1C [Example 9028] | 1 to 9.9
7 | CCCC[C@H]1C(=O)N(C)[C@@H](CCCC)C(=O)N[C@@H](CC(C)C)C(=O)N[C@H](C(=O)NCC(N)=O)CCNCC(=O)N[C@@H](Cc2ccccc2)C(=O)N(C)[C@@H](C)C(=O)N[C@@H](CC(C)C)C(=O)N2CCC[C@H]2C(=O)N[C@@H](CC(C)C)C(=O)N[C@@H](CC(C)C)C(=O)N2CCC[C@H]2C(=O)N[C@@H](Cc2c[nH]c3ccccc23)C(=O)N[C@@H](CC(C)C)C(=O)N[C@@H](Cc2c[nH]c3ccccc23)C(=O)N1C [Example 10009] | 100 to 10000
8 | CCCC[C@H]1C(=O)N(C)[C@@H](CCCC)C(=O)N[C@@H](CC(C)C)C(=O)N[C@H](C(=O)NCC(N)=O)CNCC(=O)N[C@@H](Cc2ccc(O)cc2)C(=O)N(C)[C@@H](C)C(=O)N[C@@H](CC(N)=O)C(=O)N2CCC[C@H]2C(=O)N[C@@H](Cc2cnc[nH]2)C(=O)N[C@@H](CC(C)C)C(=O)N2C[C@H](O)C[C@H]2C(=O)N[C@@H](Cc2c[nH]c3ccccc23)C(=O)NCC(=O)N[C@@H](Cc2c[nH]c3ccccc23)C(=O)N1C [Example 10026] | 10 to 99
9 | CCCC[C@H]1C(=O)N(C)[C@@H](CCCC)C(=O)N[C@@H](CCC(=O)O)C(=O)N[C@H](C(N)=O)CNCC(=O)N[C@@H](Cc2ccc(F)cc2)C(=O)N2CCCC[C@H]2C(=O)N[C@@H](CC(N)=O)C(=O)N2CCC[C@H]2C(=O)N[C@@H](CCC(N)=O)C(=O)N[C@@H](CCC(=O)O)C(=O)N2C[C@H](O)C[C@H]2C(=O)N[C@@H](Cc2c[nH]c3ccccc23)C(=O)N[C@@H](CC(N)=O)C(=O)N[C@@H](Cc2cn(CC(=O)O)c3ccccc23)C(=O)N1C [Example 9047] | 1 to 9.9
10 | CCCC[C@H]1C(=O)N(C)[C@@H](CCCC)C(=O)N[C@@H](CC(C)C)C(=O)NCCC[C@@H](N)C(=O)N[C@@H](Cc2ccc(O)cc2)C(=O)N2CCCC[C@H]2C(=O)N[C@@H](CC(N)=O)C(=O)N2CCC[C@H]2C(=O)N[C@@H](CN)C(=O)N[C@@H](CCC(=O)O)C(=O)N2C[C@H](O)C[C@H]2C(=O)N[C@@H](Cc2c[nH]c3ccccc23)C(=O)N[C@@H](CCN)C(=O)N[C@@H](Cc2cn(CC(=O)O)c3ccccc23)C(=O)N1C [Example 10568] (H-[dOrn]Y[Pip]NP[Dap]E[Hyp]W[Dab][Trp(1-CH2COOH)][NMeNle][NMeNle]L; lactam 1-C) | 1 to 9.9
11 | CCCC[C@H]1C(=O)N(C)[C@@H](CCCC)C(=O)N[C@@H](CCC(=O)O)C(=O)N[C@H](C(=O)NCC(N)=O)CNCC(=O)N[C@@H](Cc2ccc(O)cc2)C(=O)N(C)[C@@H](C)C(=O)N[C@@H](CC(N)=O)C(=O)N2CCC[C@H]2C(=O)N[C@@H](CCC(N)=O)C(=O)N[C@@H](CC(C)C)C(=O)N2C[C@H](O)C[C@H]2C(=O)N[C@@H](Cc2c[nH]c3ccccc23)C(=O)N[C@@H](CC(N)=O)C(=O)N[C@@H](Cc2cn(CC(=O)O)c3ccccc23)C(=O)N1C [Example 9018] | 1 to 9.9
12 | CCCC[C@H]1C(=O)N(C)[C@@H](CCCC)C(=O)N[C@@H](CC(C)C)C(=O)N[C@H](C(N)=O)CNCC(=O)N[C@@H](Cc2ccc(O)cc2)C(=O)N2CCCC[C@H]2C(=O)N[C@@H](CC(N)=O)C(=O)N2CCC[C@H]2C(=O)N[C@@H](CCC(N)=O)C(=O)N[C@@H](CC(C)C)C(=O)N2C[C@H](O)C[C@H]2C(=O)N[C@@H](Cc2c[nH]c3ccccc23)C(=O)N[C@@H](CC(N)=O)C(=O)N[C@@H](Cc2cn(CC(=O)O)c3ccccc23)C(=O)N1C [Example 9026] | 1 to 9.9
13 | CCCC[C@H]1C(=O)N(C)[C@@H](CCCC)C(=O)N[C@@H](CC(C)C)C(=O)N[C@H](C(=O)NCC(N)=O)CNCC(=O)N[C@@H](Cc2ccc(O)cc2)C(=O)N2CCCC[C@H]2C(=O)N[C@@H](CC(N)=O)C(=O)N2CCC[C@H]2C(=O)N[C@@H](CN)C(=O)N[C@@H](CC(C)C)C(=O)N2C[C@H](O)C[C@H]2C(=O)N[C@@H](Cc2c[nH]c3ccccc23)C(=O)N[C@@H](CCN)C(=O)N[C@@H](Cc2cn(CC(=O)O)c3ccccc23)C(=O)N1C [Example 1037] | 1 to 9.9
14 | CCCC[C@H]1C(=O)N(C)[C@@H](CCCC)C(=O)N[C@@H](CC(C)C)C(=O)NCCOCC(=O)N[C@@H](Cc2ccc(O)cc2)C(=O)N(C)[C@@H](C)C(=O)N[C@@H](CC(N)=O)C(=O)N2CCC[C@H]2C(=O)N[C@@H](CN)C(=O)N[C@@H](CC(C)C)C(=O)N2C[C@H](O)C[C@H]2C(=O)N[C@@H](Cc2c[nH]c3ccccc23)C(=O)N[C@@H](CCN)C(=O)N[C@@H](Cc2cn(CC(=O)O)c3ccccc23)C(=O)N1C [Example 10502] (cyclo([AEA]Y[NMeA]NP[Dap]L[Hyp]W[Dab][Trp(1-CH2COOH)][NMeNle][NMeNle]L)) | 1 to 9.9
15 | CCCC[C@H]1C(=O)N(C)[C@@H](CCCC)C(=O)N[C@@H](CC(C)C)C(=O)NCCCCC(=O)N[C@@H](Cc2ccc(O)cc2)C(=O)N2CCCC[C@H]2C(=O)N[C@@H](CC(N)=O)C(=O)N2CCC[C@H]2C(=O)N[C@@H](CN)C(=O)N[C@@H](CC(C)C)C(=O)N2C[C@H](O)C[C@H]2C(=O)N[C@@H](Cc2c[nH]c3ccccc23)C(=O)N[C@@H](CCN)C(=O)N[C@@H](Cc2cn(CC(=O)O)c3ccccc23)C(=O)N1C [Example 10512] (cyclo([Ava]Y[Pip]NP[Dap]L[Hyp]W[Dab][Trp(1-CH2COOH)][NMeNle][NMeNle]L)) | 100 to 10000
16 | CCCC[C@H]1C(=O)N(C)[C@@H](CCCC)C(=O)NC(CC(C)C)C(=O)N[C@H](C(=O)NCC(N)=O)CNCC(=O)N[C@@H](Cc2ccc(O)cc2)C(=O)N(C)[C@@H](C)C(=O)N[C@@H](CC(N)=O)C(=O)N2CCC[C@H]2C(=O)N[C@@H](Cc2cnc[nH]2)C(=O)N[C@@H](CC(C)C)C(=O)N2CCC[C@H]2C(=O)N[C@@H](Cc2c[nH]c3ccccc23)C(=O)N[C@@H](CC(N)=O)C(=O)N[C@@H](Cc2c[nH]c3ccccc23)C(=O)N1C (stereo partly shown) [Example 10003] | 1 to 9.9

— patent US9732119B2, “Immunomodulators” (BRISTOL-MYERS SQUIBB COMPANY, priority 2014, dated 2017)
